Measured values published in publication PMC9765455 (Science Translational Medicine, 2022).
Values joined by “and” are separate entries in the source; they are usually repeats but may differ in a detail not shown here. Identical values can stand only once. Like-named read-outs stand apart in the source and are kept apart here.

Tests used:
SARS-CoV-2 Delta variant [1] = tested on: SARS-CoV-2 Delta variant; set-up: species or system Syrian hamsters; details: hamster, in vivo
SARS-CoV-2 Delta variant [2] = type: in vivo, Syrian hamsters; details: for lung pathology / histopathological findings of viral pneumonia: hamster, in vivo; for histopathological severity of viral pneumonia / viral RNA by ISH: therapeutic treatment
SARS-CoV-2 Delta variant [3] = type: in vivo, Syrian hamsters; details: for viral load in the lungs of contact hamsters: 6 days after co-housing
SARS-CoV-2 Delta variant [4] = tested on: SARS-CoV-2 Delta variant; set-up: species or system Syrian hamsters; details: hamster, in vivo; remark: listed apart in the source
SARS-CoV-2 Delta variant [5] = assay: Light sheet microscopy of whole lungs (viral antigen distribution); set-up: species or system Syrian hamsters; details: hamster, in vivo
SARS-CoV-2 Delta variant [6] = type: cell-based; details: HBE cells
SARS-CoV-2 Delta variant [7] = type: cell-based; details: HBE cells, 333 nM or more; detection limit of the plaque assay
SARS-CoV-2 Delta variant [8] = type: cell-based; details: Vero-TMPRSS2 and Calu-3 cells
SARS-CoV-2 Delta variant [9] = assay: Time of addition assay in Calu-3 cells; type: cell-based
[10] = tested on: SARS-CoV-2 Omicron variant (lineage BA.1); type: cell-based; details: Vero-TMPRSS2, fig. S5
SARS-CoV-2 Delta variant [11] = type: cell-based; details: Vero-TMPRSS2 and Calu-3 cells; remark: listed apart in the source
SARS-CoV-2 Delta variant [12] = assay: Antiviral activity of main protease inhibitors with P-gp inhibitor CP-100356 (intracellular viral RNA); type: cell-based; details: Vero-TMPRSS2; S-217622 100 nM, nirmatrelvir 300 nM; CP-100356 1 μM
[13] = prophylactic, MPV, S-217622 30 mg/kg
[14] = prophylactic, S-217622 200 mg/kg

## CC(C)C(=O)OC[C@H]1O[C@@H](n2ccc(NO)nc2=O)[C@H](O)[C@@H]1O [Molnupiravir, reference compound]
SARS-CoV-2 Delta variant [1]
  viral loads in nasal turbinates: limited effect
  viral loads in the lungs: decreased
SARS-CoV-2 Delta variant [1]; listed as MPV
  Fig. 4E: Virus titer: 700000 and 600000 and 1200000
  Fig. 4G: Relative Ifng RNA level: 3.06 and 2.07 and 2.71 and 2.27
  Fig. 4H: Relative Il6 RNA level: 2.40 and 3.11 and 2.02 and 2.46
  Fig. 4I: Relative Il10 RNA level: 3.33 and 2.30 and 2.69 and 2.83
  Fig. 4J: Relative Cxcl10 RNA level: 14.61 and 18.50 and 12.76 and 10.96
  Fig. 4K: Neutralizing antibody titer: 640 and 1280
SARS-CoV-2 Delta variant [2]; Fig. 5B, MPV group, individual animals, listed as MPV
  Histopathological severity score: 17 and 13
SARS-CoV-2 Delta variant [2]; Fig. 5D, MPV group, individual animals, listed as MPV
  Histopathological severity score: 17 and 12 and 18 and 19
SARS-CoV-2 Delta variant [2]
  lung pathology / histopathological findings of viral pneumonia: prominent
  histopathological severity of viral pneumonia: neither MPV or S-217622 could attenuate
  viral RNA by ISH: Positive signals for viral RNA were also detected
SARS-CoV-2 Delta variant [2]; [13]
  viral RNA by in situ hybridization (ISH): decreased
SARS-CoV-2 Delta variant [3]; […]
  viral load in the lungs of contact hamsters: high viral load was detected
SARS-CoV-2 Delta variant [3]; hamster, in vivo, listed as MPV
  Fig. 2N: Virus titer: 1250000 and 1400000 and 800000
SARS-CoV-2 Delta variant [4]; listed as MPV
  Fig. 2H: Relative Ifng RNA level: 3.06 and 2.07 and 2.71 and 2.27
  Fig. 2I: Relative Il6 RNA level: 2.40 and 3.11 and 2.02 and 2.46
  Fig. 2J: Relative Il10 RNA level: 3.33 and 2.30 and 2.69 and 2.83
  Fig. 2K: Relative Cxcl10 RNA level: 14.61 and 18.50 and 12.76 and 10.96
SARS-CoV-2 Delta variant [5]
  signal distribution of viral antigen in the lungs: decreased the viral distribution

## Cn1cnc(Cn2c(=O)[nH]/c(=N\c3cc4cn(C)nc4cc3Cl)n(Cc3cc(F)c(F)cc3F)c2=O)n1 [S-217622]
SARS-CoV-2 Delta variant [6]
  LDH release into basal culture medium: decreased
SARS-CoV-2 Delta variant [7]
  progeny virus titers: < 100
SARS-CoV-2 Delta variant [8]
  progeny viral RNA in the culture supernatants: reduced the progeny viral RNA
SARS-CoV-2 Delta variant [9]; Both stages, third column group c10-c13
  Fig. 1I: Relative viral RNA to mock treated: 0.047 and 0.045 and 0.032
SARS-CoV-2 Delta variant [9]; Calu-3, 1 μM
  effect on cellular entry process (0 to 2 hpi): but not the cellular entry process of infection
  effect on post-entry process (2 to 7 hpi): has an effect on the post-entry process
SARS-CoV-2 Delta variant [9]; Entry, first column group c0-c3
  Fig. 1I: Relative viral RNA to mock treated: 1.24 and 0.89 and 1.15
SARS-CoV-2 Delta variant [9]; Entry, third column group c10-c13
  Fig. 1I: Relative viral RNA to mock treated: 0.033 and 0.037 and 0.04
SARS-CoV-2 Delta variant [9]; Post-entry, first column group c0-c3
  Fig. 1I: Relative viral RNA to mock treated: 0.007 and 0.006
SARS-CoV-2 Delta variant [9]; Post-entry, third column group c10-c13
  Fig. 1I: Relative viral RNA to mock treated: 1.03 and 0.85 and 0.71
SARS-CoV-2 Delta variant [1]
  decrease of virus titer in the lung: greater than 10^3 fold
  expression of Il6: decreased the expression of Il6
  peak of body weight loss: 7% and 5%
  viral loads in nasal turbinates: limited effect
  viral loads in the lungs: decreased
SARS-CoV-2 Delta variant [1]; 30 mg/kg
  Fig. 4H: Relative Il6 RNA level: 1.88 and 3.04 and 1.64 and 1.56
  Fig. 4J: Relative Cxcl10 RNA level: 5.91 and 3.38 and 3.37 and 5.99
SARS-CoV-2 Delta variant [1]; 200 mg/kg
  Fig. 4C: Viral RNA: 184497 and 149004 and 250553 and 219560
  Fig. 4H: Relative Il6 RNA level: 1.73 and 2.57 and 2.07 and 2.20
  Fig. 4J: Relative Cxcl10 RNA level: 0.55 and 0.70 and 0.74 and 0.64
[10]
  antiviral potency against Omicron variant (lineage BA.1): remarkable antiviral potency
SARS-CoV-2 Delta variant [11]
  Infection with SARS-CoV-2 (immunofluorescence): inhibited
SARS-CoV-2 Delta variant [2]; Fig. 5B, S-217622 dose group 30, individual animals
  Histopathological severity score: 14 and 7 and 4 and 5
SARS-CoV-2 Delta variant [2]; Fig. 5B, S-217622 dose group 200, individual animals
  Histopathological severity score: 3 and 5 and 4 and 7
SARS-CoV-2 Delta variant [2]; Fig. 5D, S-217622 dose group 30, individual animals
  Histopathological severity score: 14 and 16 and 15 and 13
SARS-CoV-2 Delta variant [2]; Fig. 5D, S-217622 dose group 200, individual animals
  Histopathological severity score: 17 and 19 and 20 and 6
SARS-CoV-2 Delta variant [2]
  lung pathology / histopathological findings of viral pneumonia: attenuated the lung pathology in a dose-dependent manner
  histopathological severity of viral pneumonia: neither MPV or S-217622 could attenuate
  viral RNA by ISH: Positive signals for viral RNA were also detected
SARS-CoV-2 Delta variant [2]; [13]
  viral RNA by in situ hybridization (ISH): decreased
SARS-CoV-2 Delta variant [2]; [14]
  Histopathological severity score: lower than the vehicle control group
  viral RNA by in situ hybridization (ISH): undetectable
SARS-CoV-2 Delta variant [3]; […]
  viral load in the lungs of contact hamsters: no detectable viral titers
SARS-CoV-2 Delta variant [3]; hamster, in vivo, 200 mg/kg
  Fig. 2N: Virus titer: n.d.(=100)
SARS-CoV-2 Delta variant [3]; second block c10-c12 (six animals: contact hamsters, 6 days after co-housing), […], 200 mg/kg
  Fig. 2N: Virus titer: n.d.(=100)
SARS-CoV-2 Delta variant [4]
  antiviral activity compared with nirmatrelvir in hamsters: higher antiviral activity than nirmatrelvir
  body weight: continuously gained weight
  decrease in viral RNA load: more than 10^5 fold
  expression of inflammatory cytokines: decreased the expression of inflammatory cytokines
  seroconversion: No seroconversion was observed
  virus titers: under the detection limit
SARS-CoV-2 Delta variant [4]; 30 mg/kg
  Fig. 2D: Viral RNA: 9351446 and 5264474 and 6254487 and 4687980
  Fig. 2F: Virus titer: 2500000 and 1700000 and 2600000 and 3300000
  Fig. 2I: Relative Il6 RNA level: 1.88 and 3.04 and 1.64 and 1.56
  Fig. 2K: Relative Cxcl10 RNA level: 5.91 and 3.38 and 3.37 and 5.99
  Fig. 2L: Neutralizing antibody titer: 160 and 320
SARS-CoV-2 Delta variant [4]; 200 mg/kg
  Fig. 2F: Virus titer: n.d.(=100)
  Fig. 2G: Virus titer: n.d.(=100)
  Fig. 2I: Relative Il6 RNA level: 1.73 and 2.57 and 2.07 and 2.20
  Fig. 2K: Relative Cxcl10 RNA level: 0.55 and 0.70 and 0.74 and 0.64
  Fig. 2L: Neutralizing antibody titer: n.d.(=10)
SARS-CoV-2 Delta variant [5]
  signal distribution of viral antigen in the lungs: limited
SARS-CoV-2 Delta variant [12]
  effect of CP-100356 on antiviral activity: enhanced

## CC(C)(C)[C@H](NC(=O)C(F)(F)F)C(=O)N1C[C@H]2[C@@H]([C@H]1C(=O)N[C@H](C#N)C[C@@H]1CCNC1=O)C2(C)C [Nirmatrelvir]
SARS-CoV-2 Delta variant [12]
  effect of CP-100356 on antiviral activity: enhanced
